Data from patent US5026694A, “Platinum complexes with one radiosensitizing ligand” (priority 1989, dated 1991).
pIC50: −log10 of the molar value.

Key:
[1] = system: L1210 cells, cDDP resistant line; assay: Toxicity in cisDDP-resistant L1210 cells (cross-resistance); format: cell-based; conditions: L1210, cDDP resistant line; read-out: ID50 (the source's name)
Text: (§1) Patients become resistant to cisplatin (cisDDP) and to many related drugs.

[2] = system: KHT tumor model; conditions: 200 mg/kg, 0.5 or 1 hour prior to X-irradiation; FIG. 6
[3] = system: L1210 cells, cDDP sensitive line; assay: Toxicity in cisDDP-sensitive L1210 cells; format: cell-based; conditions: listed as trans mono MISO, read-out: ID50 (the source's name)
Text: as §1

[4] = system: Chinese hamster ovary (CHO) cells; assay: Toxicity in hypoxic and aerated CHO cells (plating efficiency/survival); format: cell-based
Protocol: The toxicity of the invention compounds with respect to Chinese hamster ovary (CHO) cells was compared in air and in nitrogen induced hypoxia as described by Moore, B. A., et al, Radiation Research (1976) 67:459-478. The radiosensitizing ligands, or cis or transdichlorodiamine platinum II (DDP) or the . bisubstituted platinum complexes, PtCl2 (L)2, were used as controls.
The cells were carried in MEM a medium with 10% fetal calf serum, and plating efficiencies were determined on the seventh day after plating.
In similar experiments at 100 mM/dm^3, MISO and trans-[PtCl2 (miso)2 ] show no toxicity. Survival rates for trans-DDP and monoammine were 0.2 and 0.1 respectively.
Using 100 mM levels, mono-6NQ caused plating efficiency to drop to 0 after an hour, while 6NQ had no effect after 3 hours.

[5] = system: hypoxic cells; conditions: Teicher et al; cited from earlier work

Compound | pIC50 [1] | radiosensitization in vivo [2] | pIC50 [3] | toxicity compared with other isomer ([4]; 100 mM/dm^3, FIG. 1) | approximate order of hypoxic toxicity of platinum complexes ([4]; hypoxia) | killing of hypoxic cells / toxicity toward oxygenated cells [5]
COCC(O)Cn1cc[n+]([Pt-2]([NH3+])([Cl])[Cl])c1[N+](=O)[O-] (stereo not drawn) [trans-mono-MISO, PtCl2 (NH3) (misonidazole)] | 1.73 | enhance the effect of the X-rays | 2.19 | trans isomer is more toxic than cis | cis-DDP ff trans-mono-MISO f monoammine Z cis-mono-MISO f trans-DDP f mono-METRO Z mono-NI f mono-ANT | –
mono-substituted platinum complex of 1,2-diamino-4-nitrobenzene [Plato] | – | – | – | – | – | high capacity for killing of hypoxic cells and less toxicity toward oxygenated cells
